Converted amounts (≈) assume the structure as drawn. The source made the active and inactive calls. No cut-off for these calls is given here.
Experiments:
[1] = Dissociation constant, pKa of the compound; format: physicochemical
[2] = test system: Staphylococcus aureus; assay: Antibacterial activity against ip dosed Staphylococcus aureus infected in neutropenic mouse thigh model assessed as decrease in bacterial viable counts administered up to 12 hrs relative to vehicle-treated control; format: functional, organism-based; details: Thigh muscle
[3] = Antibacterial activity against fluoroquinolone-resistant Streptococcus pneumoniae D39 NCTC 7466 expressing GyrB K143A/ParE T172A double mutant assessed as growth inhibition after 18 to 24 hrs by CLSI broth microdilution method; format: functional
[4] = test system: Staphylococcus aureus; assay: Resistance factor, ratio of MIC for Staphylococcus aureus drug resistance mutants at 0.05 ug/ml after 7 days to MIC for wild type methicillin-sensitive Staphylococcus aureus at 0.2 ug/ml after 7 days; format: functional
[5] = Antibacterial activity against Streptococcus pneumoniae D39 NCTC 7466 assessed as growth inhibition after 18 to 24 hrs by CLSI broth microdilution method; format: functional
[6] = test system: Staphylococcus aureus; assay: Resistance factor, ratio of MIC for Staphylococcus aureus drug resistance mutants at 0.05 ug/ml after 7 days to MIC for wild type methicillin-sensitive Staphylococcus aureus at 0.05 ug/ml after 7 days; format: functional
[7] = Volume of distribution at steady state in rat plasma at 10 mg/kg, iv administered 15 mins of infusion measured for 0 to 24 hrs by LC-MS/MS analysis; format: ADME, organism-based; parameters: dose 10 mg/kg, route intravenous; details: read-out: Vdss
[8] = Volume of distribution at steady state in mouse; format: ADME, organism-based; details: in vivo, read-out: Vdss
[9] = test system: Escherichia coli; assay: Antibacterial activity against wild type Escherichia coli W3110 assessed as growth inhibition after 18 to 24 hrs by CLSI broth microdilution method; format: functional
[10] = Inhibition of ATPase activity in Escherichia coli GyrA/GyrB by ammonium molybdate/malachite green-based absorbance assay
[11] = Antibacterial activity against fluoroquinolone-resistant Streptococcus pneumoniae D39 NCTC 7466 expressing GyrB/ParE T172A mutant assessed as growth inhibition after 18 to 24 hrs by CLSI broth microdilution method; format: functional
[12] = test system: Moraxella catarrhalis; assay: Antibacterial activity against wild type Moraxella catarrhalis ATCC 43617 assessed as growth inhibition after 18 to 24 hrs by CLSI broth microdilution method; format: functional
[13] = Antibacterial activity against fluoroquinolone-resistant Streptococcus pneumoniae D39 NCTC 7466 expressing GyrA S81Y/ParC S79F double mutant assessed as growth inhibition after 18 to 24 hrs by CLSI broth microdilution method; format: functional
[14] = Inhibition of ATPase activity in Escherichia coli ParC/ParE by ammonium molybdate/malachite green-based absorbance assay
[15] = Octanol-phosphate buffer partition coefficient, log D of the compound at pH 7.4 after 1 hr by shake flask method; format: physicochemical
[16] = Inhibition of ATPase activity in Escherichia coli ParE by ammonium molybdate/malachite green-based absorbance assay
[17] = Antibacterial activity against fluoroquinolone-resistant Streptococcus pneumoniae D39 NCTC 7466 expressing GyrA S81F/ParC S79Y double mutant assessed as growth inhibition after 18 to 24 hrs by CLSI broth microdilution method; format: functional
[18] = test system: Staphylococcus aureus; assay: Antibacterial activity against Staphylococcus aureus infected in neutropenic mouse thigh model assessed as decrease in bacterial viable counts at 300 mg/kg, ip administered up to 12 hrs; format: functional, organism-based; parameters: dose 300 mg/kg
[19] = Solubility of the compound; format: physicochemical
[20] = Clearance in rat plasma at 10 mg/kg, iv administered 15 mins of infusion measured for 0 to 24 hrs by LC-MS/MS analysis; format: ADME, organism-based; parameters: dose 10 mg/kg, route intravenous
[21] = Antibacterial activity against fluoroquinolone-resistant Streptococcus pneumoniae D39 NCTC 7466 expressing GyrB T172A/ParE T172A double mutant assessed as growth inhibition after 18 to 24 hrs by CLSI broth microdilution method; format: functional
[22] = test system: Streptococcus pneumoniae; assay: microbe, parasite or virus in culture
Description: Antibacterial activity against wild type Streptococcus pneumoniae assessed as growth inhibition after 18 to 24 hrs by CLSI broth microdilution method

[23] = test system: Staphylococcus aureus; assay: Resistance factor, ratio of MIC for Staphylococcus aureus drug resistance mutants at 0.05 ug/ml after 7 days to MIC for wild type methicillin-sensitive Staphylococcus aureus at 0.1 ug/ml after 7 days; format: functional
[24] = Antibacterial activity against fluoroquinolone-resistant Streptococcus pneumoniae D39 NCTC 7466 expressing GyrA S81F/ParC S79F double mutant assessed as growth inhibition after 18 to 24 hrs by CLSI broth microdilution method; format: functional
[25] = Clearance in mouse; format: ADME, organism-based; details: in vivo
[26] = test system: Staphylococcus aureus; assay: Antibacterial activity against Staphylococcus aureus infected in neutropenic mouse thigh model assessed as decrease in bacterial viable counts at 300 mg/kg, ip administered up to 12 hrs relative to vehicle-treated control; format: functional; details: route intraperitoneal
[27] = Antibacterial activity against wild type Haemophilus influenzae Rd KW20 ATCC 51907 assessed as growth inhibition after 18 to 24 hrs by CLSI broth microdilution method; format: functional
[28] = target: DNA gyrase subunit B (Staphylococcus aureus, UniProt P0A0K8); assay: Inhibition of ATPase activity in Staphylococcus aureus GyrB tetramer in presence of Escherichia coli GyrA by ammonium molybdate/malachite green-based absorbance assay
DNA gyrase subunit B, sequence (P0A0K8 whole entry): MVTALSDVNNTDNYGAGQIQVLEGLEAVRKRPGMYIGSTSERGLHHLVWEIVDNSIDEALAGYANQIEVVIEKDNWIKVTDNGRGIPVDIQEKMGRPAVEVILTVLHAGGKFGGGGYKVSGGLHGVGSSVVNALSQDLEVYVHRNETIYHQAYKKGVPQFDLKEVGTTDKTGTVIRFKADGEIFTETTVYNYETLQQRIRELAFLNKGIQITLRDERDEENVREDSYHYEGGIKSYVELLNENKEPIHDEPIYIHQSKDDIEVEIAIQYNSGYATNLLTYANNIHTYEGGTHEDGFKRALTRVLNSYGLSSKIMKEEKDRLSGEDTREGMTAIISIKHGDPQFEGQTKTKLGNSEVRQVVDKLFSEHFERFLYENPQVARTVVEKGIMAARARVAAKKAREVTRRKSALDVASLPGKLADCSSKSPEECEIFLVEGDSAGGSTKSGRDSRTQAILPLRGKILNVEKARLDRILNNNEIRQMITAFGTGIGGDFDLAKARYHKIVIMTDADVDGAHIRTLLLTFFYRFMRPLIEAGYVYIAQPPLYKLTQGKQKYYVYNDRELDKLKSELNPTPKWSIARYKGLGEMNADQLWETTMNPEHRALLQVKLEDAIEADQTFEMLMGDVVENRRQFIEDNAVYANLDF

[29] = Antibacterial activity against fluoroquinolone-resistant Streptococcus pneumoniae D39 NCTC 7466 expressing ParE/GyrB K143I mutant assessed as growth inhibition after 18 to 24 hrs by CLSI broth microdilution method; format: functional
[30] = test system: Staphylococcus aureus; assay: Antibacterial activity against methicillin-resistant and […] Staphylococcus aureus assessed as growth inhibition after 18 to 24 hrs by CLSI broth microdilution method; format: functional
[31] = test system: Staphylococcus aureus; assay: Antibacterial activity against methicillin-sensitive wild type Staphylococcus aureus assessed as growth inhibition after 18 to 24 hrs by CLSI broth microdilution method; format: functional
[32] = test system: Staphylococcus aureus; assay: Antibacterial activity against ip dosed Staphylococcus aureus infected in neutropenic mouse thigh model assessed as decrease in bacterial viable counts administered up to 12 hrs; format: functional; details: Thigh muscle
[33] = Antibacterial activity against fluoroquinolone-resistant Streptococcus pneumoniae D39 NCTC 7466 expressing ParE/GyrB T172A mutant assessed as growth inhibition after 18 to 24 hrs by CLSI broth microdilution method; format: functional
[34] = Unbound fraction in human at 10 uM after 16 hrs by LC-MS/MS analysis; format: ADME; details: plasma
[35] = test system: Escherichia coli; assay: Antibacterial activity against tolC efflux pump deficient Escherichia coli W3110 assessed as growth inhibition after 18 to 24 hrs by CLSI broth microdilution method; format: functional
[36] = test system: Staphylococcus aureus; assay: Inhibition of protein synthesis in methicillin-sensitive wild type Staphylococcus aureus over 1 hr by [14C]leucine incorporation assay; format: functional, organism-based
[37] = test system: Streptococcus pneumoniae; assay: Inhibition of fatty acid synthesis in Streptococcus pneumoniae D39 over 1 hr by [14C]acetic acid incorporation assay; format: functional; details: D39, 1 h
[38] = test system: Streptococcus pneumoniae; assay: Inhibition of cell wall synthesis in Streptococcus pneumoniae D39 over 1 hr by [14C]N-acetyl glucosamine incorporation assay; format: functional; details: D39, 1 h
[39] = test system: Staphylococcus aureus; assay: Inhibition of DNA synthesis in methicillin-sensitive wild type Staphylococcus aureus over 1 hr by [3H]thymidine incorporation assay; format: functional, organism-based
[40] = test system: Streptococcus pneumoniae; assay: Inhibition of RNA synthesis in Streptococcus pneumoniae D39 over 1 hr by [3H]uridine incorporation assay; format: functional
[41] = test system: Streptococcus pneumoniae; assay: Inhibition of protein synthesis in Streptococcus pneumoniae D39 over 1 hr by [14C]valine incorporation assay; format: functional; details: D39, 1 h
[42] = test system: Staphylococcus aureus; assay: Inhibition of protein synthesis in methicillin-sensitive wild type Staphylococcus aureus over 1 hr by [14C]valine incorporation assay; format: functional, organism-based
[43] = test system: Staphylococcus aureus; assay: Inhibition of RNA synthesis in methicillin-sensitive wild type Staphylococcus aureus over 1 hr by [3H]uridine incorporation assay; format: functional, organism-based
[44] = test system: Staphylococcus aureus; assay: Inhibition of cell wall synthesis in methicillin-sensitive wild type Staphylococcus aureus over 1 hr by [14C]N-acetyl glucosamine incorporation assay; format: functional, organism-based
[45] = test system: Staphylococcus aureus; assay: Inhibition of fatty acid synthesis in methicillin-sensitive wild type Staphylococcus aureus over 1 hr by [14C]acetic acid incorporation assay; format: functional, organism-based
[46] = test system: Streptococcus pneumoniae; assay: Inhibition of DNA synthesis in Streptococcus pneumoniae D39 over 1 hr by [3H]thymidine incorporation assay; format: functional
[47] = test system: Streptococcus pneumoniae; assay: Inhibition of protein synthesis in Streptococcus pneumoniae D39 over 1 hr by [14C]leucine incorporation assay; format: functional; details: D39, 1 h

Row | SMILES | MIC [3] [µg/mL] | MIC [5] [µg/mL] | Vd [7] [L/kg] | MIC [9] [µg/mL] | IC50 [10] [µM] | MIC [11] [µg/mL] | MIC [12] [µg/mL] | MIC [13] [µg/mL] | IC50 [14] [µM] | logD at 1 h [15] | IC50 [16] [µM] | MIC [17] [µg/mL] | solubility [19] [µM] | MIC [21] [µg/mL] | MIC [22] [µg/mL] | MIC [24] [µg/mL] | MIC [29] [µg/mL] | MIC [30] [µg/mL] | MIC [31] [µg/mL] | MIC [33] [µg/mL] | other results
1 | CCNC(=O)Nc1cc(-c2nc(C(F)(F)F)cs2)c(-c2cncc(-c3n[nH]c(=O)o3)c2)cn1 | 0.04 (≈ 0.0838 µM) | 0.05 (≈ 0.105 µM) | 0.66 | > 64 | < 0.01 | 0.01 (≈ 0.0209 µM) | 0.04 (≈ 0.0838 µM) | 0.0025 (≈ 0.00524 µM) | 0.23 | 2 | < 0.01 | 0.0025 (≈ 0.00524 µM) | 19 (≈ 9.07 µg/mL) | 0.02 (≈ 0.0419 µM) | 0.0025 (≈ 0.00524 µM) | 0.0025 (≈ 0.00524 µM) | 0.01 (≈ 0.0209 µM) | 0.06 (≈ 0.126 µM) | 0.04 (≈ 0.0838 µM) | 0.01 (≈ 0.0209 µM) | pKa [1]: 6.6; Activity [2]: Dose-dependent effect; Ratio [4]: 16; Ratio [6]: 16; Vd [8]: 2.6 L/kg; Activity [18]: Active; clearance [20]: 36 mL/min/kg; Ratio [23]: 16; clearance [25]: 74 mL/min/kg; fold change (FC) [26]: 3000; MIC [27]: 0.69 µg/mL (≈ 1.45 µM); IC50 [28]: < 0.01 µM; ED50 [32]: 200 mg/kg; fraction unbound at 16 h, 10 µM [34]: 0.044; MIC [35]: 0.15 µg/mL (≈ 0.314 µM)
2 | O=C(O)c1cn(C2CC2)c2cc(N3CCNCC3)c(F)cc2c1=O [CIPROFLOXACIN] |  |  |  |  |  |  |  |  |  |  |  |  |  |  |  |  |  |  |  |  | IC50 [36]: > 174 µM; IC50 [37]: > 200 µM; IC50 [38]: > 200 µM; IC50 [39]: 3.9 µM; IC50 [40]: > 200 µM; IC50 [41]: > 200 µM; IC50 [42]: > 195 µM; IC50 [43]: > 195 µM; IC50 [44]: > 195 µM; IC50 [45]: > 195 µM; IC50 [46]: 28 µM; IC50 [47]: 110 µM
3 | CCNC(=O)Nc1cc(-c2nc(C(F)(F)F)cs2)c(-c2cncc(C(N)=O)c2)cn1 |  | 0.09 (≈ 0.206 µM) | 1.5 | > 64 | 0.017 |  | 0.7 (≈ 1.6 µM) |  | 0.96 | 2 | 0.012 |  | 26 (≈ 11.3 µg/mL) |  |  |  |  | 1.4 (≈ 3.21 µM) | 2.7 (≈ 6.19 µM) |  | IC50 [36]: 8.8 µM; IC50 [37]: > 20 µM; IC50 [38]: > 20 µM; clearance [20]: 120 mL/min/kg; IC50 [39]: 1.6 µM; IC50 [40]: 0.83 µM; MIC [27]: 5.5 µg/mL (≈ 12.6 µM); IC50 [41]: 1.2 µM; IC50 [28]: < 0.01 µM; IC50 [42]: 31 µM; IC50 [43]: 6.9 µM; IC50 [44]: > 200 µM; fraction unbound at 16 h, 10 µM [34]: 0.36; IC50 [45]: > 200 µM; MIC [35]: 1.6 µg/mL (≈ 3.67 µM); IC50 [46]: 0.46 µM; IC50 [47]: 0.86 µM
4 | C[C@H]1COc2c(N3CCN(C)CC3)c(F)cc3c(=O)c(C(=O)O)cn1c23.C[C@H]1COc2c(N3CCN(C)CC3)c(F)cc3c(=O)c(C(=O)O)cn1c23.O [LEVOFLOXACIN] | 0.5 |  |  |  |  | 1 |  | 16 |  |  |  | 32 |  | 0.5 |  | 16 | 1 | 4 | 0.13 | 0.5 | 
5 | CN(C)[C@@H]1C(O)=C(C(N)=O)C(=O)[C@@]2(O)C(O)=C3C(=O)c4c(O)cccc4[C@@](C)(O)[C@H]3C[C@@H]12 [TETRACYCLINE] | 0.25 (≈ 0.563 µM) |  |  |  |  | 0.25 (≈ 0.563 µM) |  | 0.25 (≈ 0.563 µM) |  |  |  | 0.13 (≈ 0.293 µM) |  | 0.25 (≈ 0.563 µM) | 0.25 (≈ 0.563 µM) | 0.13 (≈ 0.293 µM) | 0.25 (≈ 0.563 µM) |  |  | 0.25 (≈ 0.563 µM) | 
6 | CO[C@@H]1[C@@H](OC(N)=O)[C@@H](O)[C@H](Oc2ccc3c(O)c(NC(=O)c4ccc(O)c(CC=C(C)C)c4)c(=O)oc3c2C)OC1(C)C [NOVOBIOCIN] | 4 (≈ 6.53 µM) |  |  |  |  | 0.25 (≈ 0.408 µM) |  | 0.25 (≈ 0.408 µM) |  |  |  | 0.25 (≈ 0.408 µM) |  | 4 (≈ 6.53 µM) | 0.5 (≈ 0.816 µM) | 0.25 (≈ 0.408 µM) | 1 (≈ 1.63 µM) |  |  | 2 (≈ 3.26 µM) | 
